Assays:
Test in all cases: relative viability (nuclei count vs DMSO), 5 days (fraction); higher = more cells survive
LK-2 = tested on: LK-2
Method in brief: (§1)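 A single step with final 0.05% Triton X-100, 1% formaldehyde and 1 ug/ml Hoechst fixed the cells and stained nuclei 5 days after treatment. Lung cancer cell lines in 1536-well plates had been treated by pin tool the day after seeding with one drug alone or a fixed anchor-drug dose plus five library-drug doses (not always all listed) in √10 steps, and nuclei were counted on 4× images. Relative viability is the ratio of nuclei in treated wells to nuclei in vehicle wells, taken as the median of duplicate plates.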

A-427 = tested on: A-427
Method in brief: as §1

NCI-H23 = tested on: NCI-H23
Method in brief: as §1

PC-3 [JPC-3] = tested on: PC-3 [JPC-3]
Method in brief: as §1

201T = tested on: 201T
Method in brief: as §1

LU99A = tested on: LU99A
Method in brief: as §1

RERF-LC-KJ = tested on: RERF-LC-KJ
Method in brief: as §1

LCLC-97TM1 = tested on: LCLC-97TM1
Method in brief: as §1

H3255 = tested on: H3255
Method in brief: as §1

NCI-H1651 = tested on: NCI-H1651
Method in brief: as §1

COR-L23 = tested on: COR-L23
Method in brief: as §1

NCI-H1563 = tested on: NCI-H1563
Method in brief: as §1

SW 1573 = tested on: SW 1573
Method in brief: as §1

NCI-H1650 = tested on: NCI-H1650
Method in brief: as §1

NCI-H1944 = tested on: NCI-H1944
Method in brief: as §1

LCLC-103H = tested on: LCLC-103H
Method in brief: as §1

PC-14 = tested on: PC-14
Method in brief: as §1

NCI-H1793 = tested on: NCI-H1793
Method in brief: as §1

NCI-H2347 = tested on: NCI-H2347
Method in brief: as §1

SW 900 = tested on: SW 900
Method in brief: as §1

NCI-H650 = tested on: NCI-H650
Method in brief: as §1

NCI-H460 = tested on: NCI-H460
Method in brief: as §1

NCI-H727 = tested on: NCI-H727
Method in brief: as §1

NCI-H838 = tested on: NCI-H838
Method in brief: as §1

`C[C@@H]1CN(CC(=O)Nc2ccc3c(c2)Cc2cccc(-c4cc(=O)cc(N5CCOCC5)o4)c2S3)C[C@H](C)O1` + Cc1nc(Nc2ncc(C(=O)Nc3c(C)cccc3Cl)s2)cc(N2CCN(CCO)CC2)n1 [Dasatinib] (partner 0.075 µM) showed a relative viability (LK-2; first compound 0.1265 µM) of 0.301, a relative viability (LK-2; first compound 0.4 µM) of 0.336 and a relative viability (LK-2; first compound 4 µM) of 0.437. The relative viability (A-427; first compound 0.04 µM) was 0.737, the relative viability (A-427; first compound 0.1265 µM) was 0.719 and the relative viability (A-427; first compound 0.4 µM) was 0.729. It also gave a relative viability (A-427; first compound 4 µM) of 0.669, a relative viability (NCI-H23; first compound 0.04 µM) of 0.751 and a relative viability (NCI-H23; first compound 0.1265 µM) of 0.751. For the same molecule, the relative viability (NCI-H23; first compound 0.4 µM) was 0.711, the relative viability (NCI-H23; first compound 4 µM) was 0.735 and the relative viability (PC-3 [JPC-3]; first compound 0.04 µM) was 0.983. The relative viability (PC-3 [JPC-3]; first compound 0.1265 µM) was 1.06, the relative viability (PC-3 [JPC-3]; first compound 0.4 µM) was 1.01 and the relative viability (PC-3 [JPC-3]; first compound 4 µM) was 0.918. For the same molecule, the relative viability (201T; first compound 0.04 µM) was 0.624, the relative viability (201T; first compound 0.1265 µM) was 0.525 and the relative viability (201T; first compound 0.4 µM) was 0.581. For the same molecule, the relative viability (201T; first compound 4 µM) was 0.52, the relative viability (LU99A; first compound 0.04 µM) was 0.523 and the relative viability (LU99A; first compound 0.1265 µM) was 0.491. For the same molecule, the relative viability (LU99A; first compound 0.4 µM) was 0.488, the relative viability (LU99A; first compound 4 µM) was 0.523 and the relative viability (RERF-LC-KJ; first compound 0.04 µM) was 0.877. For the same molecule, the relative viability (RERF-LC-KJ; first compound 0.1265 µM) was 0.813, the relative viability (RERF-LC-KJ; first compound 0.4 µM) was 0.782 and the relative viability (RERF-LC-KJ; first compound 4 µM) was 0.665. The relative viability (LCLC-97TM1; first compound 0.04 µM) was 0.839, the relative viability (LCLC-97TM1; first compound 0.1265 µM) was 0.744 and the relative viability (LCLC-97TM1; first compound 0.4 µM) was 0.794. It also gave a relative viability (LCLC-97TM1; first compound 4 µM) of 0.893, a relative viability (H3255; first compound 0.04 µM) of 0.432 and a relative viability (H3255; first compound 0.1265 µM) of 0.347. It also gave a relative viability (H3255; first compound 0.4 µM) of 0.424, a relative viability (H3255; first compound 4 µM) of 0.346 and a relative viability (NCI-H1651; first compound 0.04 µM) of 0.47. For the same molecule, the relative viability (NCI-H1651; first compound 0.1265 µM) was 0.411, the relative viability (NCI-H1651; first compound 0.4 µM) was 0.478 and the relative viability (NCI-H1651; first compound 4 µM) was 0.348. The relative viability (COR-L23; first compound 0.04 µM) was 0.588, the relative viability (COR-L23; first compound 0.1265 µM) was 0.46 and the relative viability (COR-L23; first compound 0.4 µM) was 0.593. For the same molecule, the relative viability (COR-L23; first compound 4 µM) was 0.369, the relative viability (NCI-H1563; first compound 0.04 µM) was 0.433 and the relative viability (NCI-H1563; first compound 0.1265 µM) was 0.429. It also gave a relative viability (NCI-H1563; first compound 0.4 µM) of 0.445, a relative viability (NCI-H1563; first compound 4 µM) of 0.433 and a relative viability (SW 1573; first compound 0.04 µM) of 0.736. It also gave a relative viability (SW 1573; first compound 0.1265 µM) of 0.613, a relative viability (SW 1573; first compound 0.4 µM) of 0.515 and a relative viability (SW 1573; first compound 4 µM) of 0.355. For the same molecule, the relative viability (NCI-H1650; first compound 0.04 µM) was 0.31, the relative viability (NCI-H1650; first compound 0.1265 µM) was 0.293 and the relative viability (NCI-H1650; first compound 0.4 µM) was 0.301. It also gave a relative viability (NCI-H1650; first compound 4 µM) of 0.244, a relative viability (NCI-H1944; first compound 0.04 µM) of 0.21 and a relative viability (NCI-H1944; first compound 0.1265 µM) of 0.236. The relative viability (NCI-H1944; first compound 0.4 µM) was 0.263, the relative viability (NCI-H1944; first compound 4 µM) was 0.264 and the relative viability (LCLC-103H; first compound 0.04 µM) was 0.451. The relative viability (LCLC-103H; first compound 0.1265 µM) was 0.436, the relative viability (LCLC-103H; first compound 0.4 µM) was 0.405 and the relative viability (LCLC-103H; first compound 4 µM) was 0.419. For the same molecule, the relative viability (PC-14; first compound 0.04 µM) was 0.286, the relative viability (PC-14; first compound 0.1265 µM) was 0.254 and the relative viability (PC-14; first compound 0.4 µM) was 0.314. The relative viability (PC-14; first compound 4 µM) was 0.147, the relative viability (NCI-H1793; first compound 0.04 µM) was 0.403 and the relative viability (NCI-H1793; first compound 0.1265 µM) was 0.373. For the same molecule, the relative viability (NCI-H1793; first compound 0.4 µM) was 0.414, the relative viability (NCI-H1793; first compound 4 µM) was 0.342 and the relative viability (NCI-H2347; first compound 0.04 µM) was 0.329. It also gave a relative viability (NCI-H2347; first compound 0.1265 µM) of 0.39, a relative viability (NCI-H2347; first compound 0.4 µM) of 0.248 and a relative viability (NCI-H2347; first compound 4 µM) of 0.337. It also gave a relative viability (SW 900; first compound 0.04 µM) of 0.509, a relative viability (SW 900; first compound 0.1265 µM) of 0.801 and a relative viability (SW 900; first compound 0.4 µM) of 0.66. The relative viability (SW 900; first compound 4 µM) was 0.375, the relative viability (NCI-H650; first compound 0.04 µM) was 0.45 and the relative viability (NCI-H650; first compound 0.1265 µM) was 0.445. It also gave a relative viability (NCI-H650; first compound 0.4 µM) of 0.359, a relative viability (NCI-H650; first compound 4 µM) of 0.384 and a relative viability (NCI-H460; first compound 0.04 µM) of 0.606. The relative viability (NCI-H460; first compound 0.1265 µM) was 0.484, the relative viability (NCI-H460; first compound 0.4 µM) was 0.427 and the relative viability (NCI-H460; first compound 4 µM) was 0.339. For the same molecule, the relative viability (NCI-H727; first compound 0.04 µM) was 0.361, the relative viability (NCI-H727; first compound 0.1265 µM) was 0.368 and the relative viability (NCI-H727; first compound 0.4 µM) was 0.378. The relative viability (NCI-H727; first compound 4 µM) was 0.286, the relative viability (NCI-H838; first compound 0.04 µM) was 0.27 and the relative viability (NCI-H838; first compound 0.1265 µM) was 0.233. It also gave a relative viability (NCI-H838; first compound 0.4 µM) of 0.221 and a relative viability (NCI-H838; first compound 4 µM) of 0.188.

Source: the supplement of paper PMC10307832
